Test [1] has as its target T1, KDM4A1-359 (Homo sapiens, UniProt O75164).
T1 construct: Hexa-His (N); made in house
T1 sequence (O75164 1-359): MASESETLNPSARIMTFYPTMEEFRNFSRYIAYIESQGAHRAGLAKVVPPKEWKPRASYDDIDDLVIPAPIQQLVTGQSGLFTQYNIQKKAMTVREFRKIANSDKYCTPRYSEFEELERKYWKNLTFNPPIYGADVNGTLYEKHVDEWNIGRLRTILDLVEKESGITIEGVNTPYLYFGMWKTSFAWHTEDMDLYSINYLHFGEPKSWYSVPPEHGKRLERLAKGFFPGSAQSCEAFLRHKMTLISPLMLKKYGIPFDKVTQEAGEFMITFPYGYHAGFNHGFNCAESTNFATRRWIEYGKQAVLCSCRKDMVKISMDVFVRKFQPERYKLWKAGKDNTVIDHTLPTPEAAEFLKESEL
Kind of test: MALDI-TOF MS demethylation of CP2 variants as substrates. The class given is biochemical. The conditions noted are these: KDM4A 2 μM, peptide 10 μM, 2OG 100 μM, 2 h 37 °C. The procedure:
Figure 3 KDM4A can demethylate methylated lysine and arginine containing non-histone sequences. […] The reaction product was analysed using matrix-assisted laser desorption/ionization–time of flight MS. Reactions containing enzymes are in red, no enzyme peptide controls are in black.

Test [2] concerns FLAG-KDM4A in HeLa cells. Kind of test: Immunofluorescence of H3K9me3 in HeLa cells overexpressing FLAG-KDM4A, 24 h dosing.
In test [3] the target is T2, KDM4A (Homo sapiens, UniProt O75164).
T2 construct: KDM4A 1-359 E.coli; Hexa-His (N); made in house; host or cells: E. coli
T2 sequence (O75164 1-359): T1 sequence (O75164 1-359)
Kind of test: AlphaScreen demethylase activity assay, KDM4A. The class given is biochemical. The conditions noted are these: for IC50: KDM4A 1-359. The procedure:
IC50 values for KDM2–6 were measured using an AlphaScreen assay as described. The appropriate KDM (5 μl) was pre-incubated with an inhibitor (0.1 μl in DMSO) or DMSO for 15 min before the addition of 5 μl mixture of biotinylated peptide substrates, 2OG, ferrous ammonium sulfate (1–10 μM final) and ascorbate (100 μM final) to initiate the demethylation reaction. The reaction was quenched with 5 μl of 30 mM EDTA at predetermined reaction times for each enzyme (initial rate). Demethylated product was detected by addition of 5 μl of AlphaScreen donor and acceptor beads (AlphaScreen General IgG Detection Kit, 0.02 mg ml^−1 final each) pre-incubated with antibody. The plates were read after 1 h incubation in a BMG Labtech Pherastar FS plate reader. Data were normalized to a no enzyme control and IC50 values were calculated using nonlinear regression curve fits using GraphPad Prism. Assay buffer (50 mM HEPES pH 7.5, BSA (0.1% w/v) and Tween-20 (0.01% v/v)) was used throughout, except for dilution of stock ferrous ammonium sulfate solutions where water was used. The enzyme, substrate and antibody concentrations used are described in Supplementary Table 3. A fluorescence-based LSD1 inhibitor screening assay kit (Cayman, 700120) was used for KDM1/LSD1 assay. Assays for prolyl hydroxylase domain 2 and factor inhibiting HIF using matrix-assisted laser desorption/ionization–time of flight MS were performed as previously described. Prism 5.0 (GraphPad) was used to generate and to fit dose–response curves. IC50 values were determined by plotting percentage inhibition versus compound concentration relative to positive (vehicle) and negative (no enzyme) controls, using normalized dose–response (variable slope) fit. The reported values are the mean of multiple experiments (n≥3). The formaldehyde dehydrogenase coupled KDM assay was used to determine the mode of inhibition, using 0.5 μM His-KDM4A1–359. Prism 5.0 (GraphPad) was used to fit in mix-mode inhibition, to determine the kinetic parameters. Binding constants for CPs and H3(1–15)K9me3 were measured using biolayer interferometry (OctetRed 384, ForteBio) in buffer (50 mM HEPES (pH 7.5), 150 mM NaCl, 10 μM ammonium iron(II) sulphate). His-KDM4A1–359-Bio (70 nM) was immobilized onto super streptavidin biosensor and subjected to different peptide concentrations in buffer. Data analysis was performed using ForteBio Data Aalysis (v6.4).
Construct Expression [E] / nM [2OG] / µM [Fe(II)] / µM Peptide / nM Peptide sequence Antibody Source […]
Supplementary Table 3. AlphaScreen assay parameters for 2OG oxygenases used for this study. The table was dapted from 10. Assays were performed at 2OG concentration near the 2OG Km values determined experimentally.11 All enzymes were expressed and purified as described.10-12
In general terms: Alpha assays give light when donor and acceptor beads are brought close together.

Test [4] concerns the target T3, His-KDM4A1-359-Bio (Homo sapiens, UniProt O75164).
T3 construct: KDM4A protein (residues 1-359) was cloned into the pNIC-Bio3 plasmid, which incorporates a C-terminal AviTag; made in house; host or cells: E. coli BL21(DE3)Rosetta co-transfected with pCDF-BirA
T3 sequence (O75164 1-359): T1 sequence (O75164 1-359)
Put plainly: Biolayer interferometry binding to KDM4A. In general terms: BLI is a label-free optical method that tracks binding on a fibre tip over time.

The test system of test [5] is H3K9me3/H3K36me3 in HeLa cells. Put plainly: Immunofluorescence of global histone methylation, 72 h dosing. It counts as cell-based. The conditions noted are these: 72 h treatment. The text has this: Supplementary Figure 12. Immunofluorescence analysis of global histone methylation levels after 72hr dosing of cyclic peptides in HeLa cells. (a)-(c) Immunofluorescence analysis of HeLa cells dosed with cyclic peptides for 72 hrs. Maximum intensity projected images of 3D confocal z-stacks showing nuclei stained with […]
DMSO and CP2 treated cells. Bar represents 50µm. Global H3K9me3 (d) and associated nuclei count for the […]
staining, (h) global H3K4me3 and (i) global H3K27me3 staining. An increase in fluorescence intensity, […]
over certain concentration ranges. Average +/- s.e.m (n > 100 cells) are shown except at concentrations of […]
A generic 2OG oxygenase inhibitor 5-carboxy-8-
Immunofluorescence (IF) assay […]
with 0.5% FBS and 1% Pen-Strep. […]
grade plate (Becton Dickinson) and left overnight to adhere. Cells were dosed with cyclic […]
After 30min blocking (3% FBS in […]
three times after each incubation. […]
Image acquisition and analysis […]
image immunostained cells in a 96-well plate configuration. For each well, the system […]
The average intensity for each […]
analysed using GraphPad Prism 5. […]

The subject of test [6] is KDM4A. Also noted: method as in earlier work. Particulars: ref 4 (King et al., supplementary references); read-out: EC50 KDM4A inhibition in cells; cited from earlier work.
In test [7] the target is T4, KDM4C (Homo sapiens, UniProt Q9H3R0).
T4 construct: KDM4C 1-366 E.coli; made in house; host or cells: E. coli
T4 sequence (Q9H3R0 1-366): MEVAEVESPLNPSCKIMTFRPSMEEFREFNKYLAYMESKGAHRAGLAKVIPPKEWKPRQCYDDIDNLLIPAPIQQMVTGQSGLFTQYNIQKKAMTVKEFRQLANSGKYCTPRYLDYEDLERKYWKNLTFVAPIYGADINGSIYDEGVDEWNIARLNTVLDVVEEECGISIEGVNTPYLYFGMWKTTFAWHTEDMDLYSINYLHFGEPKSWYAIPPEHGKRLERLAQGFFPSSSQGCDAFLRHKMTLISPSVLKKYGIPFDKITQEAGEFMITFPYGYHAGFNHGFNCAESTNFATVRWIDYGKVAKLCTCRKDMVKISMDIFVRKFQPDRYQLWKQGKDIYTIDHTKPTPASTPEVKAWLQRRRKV
Kind of test: AlphaScreen demethylase activity assay, KDM4C. It counts as biochemical. How it is done: IC50 values for KDM2–6 were measured using an AlphaScreen assay as described. The appropriate KDM (5 μl) was pre-incubated with an inhibitor (0.1 μl in DMSO) or DMSO for 15 min before the addition of 5 μl mixture of biotinylated peptide substrates, 2OG, ferrous ammonium sulfate (1–10 μM final) and ascorbate (100 μM final) to initiate the demethylation reaction. The reaction was quenched with 5 μl of 30 mM EDTA at predetermined reaction times for each enzyme (initial rate). Demethylated product was detected by addition of 5 μl of AlphaScreen donor and acceptor beads (AlphaScreen General IgG Detection Kit, 0.02 mg ml^−1 final each) pre-incubated with antibody. The plates were read after 1 h incubation in a BMG Labtech Pherastar FS plate reader. Data were normalized to a no enzyme control and IC50 values were calculated using nonlinear regression curve fits using GraphPad Prism. […] A fluorescence-based LSD1 inhibitor screening assay kit (Cayman, 700120) was used for KDM1/LSD1 assay. […] IC50 values were determined by plotting percentage inhibition versus compound concentration relative to positive (vehicle) and negative (no enzyme) controls, using normalized dose–response (variable slope) fit. […] Binding constants for CPs and H3(1–15)K9me3 were measured using biolayer interferometry (OctetRed 384, ForteBio) in buffer (50 mM HEPES (pH 7.5), 150 mM NaCl, 10 μM ammonium iron(II) sulphate). […]

“Also recorded” adds a separate entry of the source. Where a SMILES comes first, the peptide text is derived from it. Bridges are numbered along the chain shown (N, C = ends). Where no end group is shown, it is not given here. [ ]: non-standard residue; d: D form. Lys(Me3) = C[N+](C)(C)CCCC[C@H](N)C(=O)O; Phe(4-F) = N[C@@H](Cc1ccc(F)cc1)C(=O)O; NMeV = CN[C@H](C(=O)O)C(C)C; NMeC = CN[C@@H](CS)C(=O)O Bounds are passed on as bounds.

The IC50 is the concentration needed to halve the response being measured. A low value points to greater potency. What is called EC50 is the concentration giving half of the maximal effect.

On to “LYVYNT(Rme2a)SGWRWYTC (not fully specified (N-terminus, bridges)) [CP2(R6me2a)]”, for which the “Demethylation of the peptide by KDM4A (substrate)” value in test [1] was “demethylate; also recorded: substrates of KDM4A”. Turning to DYVYNTRSGWRWYTC-BRRRRRRRRR [CP2(polyR)], the “H3K9me3 levels in cells overexpressing FLAG-KDM4A (cellular KDM4A demethylase activity)” value in test [2] is “Loss of H3K9me3 staining; also recorded: no inhibition of cellular KDM4A demethylase activity”. For LYLKSRRSGLTWIPC [CP4], in test [3] (ratio of IC50 values), the “Intra-subfamily selectivity KDM4A-C over KDM4D-E” value is more than 100 fold; the “Selectivity by IC50 for KDM4 over other JmjC-demethylase families, PHD2, FIH and KDM1A” value was more than 160 fold. In addition, in test [4], the “KDM4A Binding kdiss” value is 0.000784 s⁻¹ and the “KDM4A Binding kon” value was determined as 21800 M⁻¹ s⁻¹. In the case of `CC[C@H](C)[C@@H]1NC(=O)CNC(=O)[C@H](CC(C)C)NC(=O)[C@H](Cc2c[nH]c3ccccc23)NC(=O)[C@H](Cc2ccc(O)cc2)NC(=O)[C@@H](Cc2ccc(O)cc2)NC(=O)CSC[C@@H](C(N)=O)NC(=O)[C@H](Cc2ccc(O)cc2)NC(=O)[C@H](CO)NC(=O)[C@H](CCCNC(=N)N)NC(=O)[C@@H]2CCCN2C(=O)[C@H]([C@@H](C)O)NC1=O` [CP1] ({CH2CO}-[dY]YWLGITPRSYC-NH2; thioether N-12), the IC50 in test [3] (AlphaScreen) was more than 100 µM. Regarding LYSKYTQSGVRWVC [CP5], in test [3] (ratio of IC50 values), the “Selectivity by IC50 for KDM4 over other JmjC-demethylase families, PHD2, FIH and KDM1A” value is on record as more than 160 fold. In test [4], the “KDM4A Binding kdiss” value is 0.0107 s⁻¹ and the “KDM4A Binding kon” value came out at 62000 M⁻¹ s⁻¹. As for DYVYNTRSDAWRWYT(meC) [CP2.1], the “Inhibitor range with increases in nuclear H3K9me3/H3K36me3 staining” value (shortened to “Inhibitor range with increases”) in test [5] fell in the range of 10 to 20 µM. On to `O=C(O)c1ccc(O)c2ncccc12` [IOX1, 5-carboxy-8-hydroxyquinoline], for which the 50% effective concentration (EC50) in test [6] was […]. Turning to `CC[C@H](C)[C@@H]1NC(=O)[C@H](C)NC(=O)[C@@H]2CCCN2C(=O)[C@H]([C@@H](C)O)NC(=O)[C@H](Cc2ccc(O)cc2)NC(=O)[C@H](Cc2ccccc2)NC(=O)[C@H](Cc2c[nH]c3ccccc23)NC(=O)[C@H](Cc2ccc(O)cc2)NC(=O)CSC[C@@H](C(N)=O)NC(=O)[C@H](Cc2c[nH]c3ccccc23)NC(=O)[C@H](CCCNC(=N)N)NC1=O` [CP3] ({CH2CO}-YWFYTPAIRWC-NH2; thioether N-11), the IC50 in test [7] and in test [3] (AlphaScreen) was more than 100 µM in each case. Turning to DYVYNTRSGWRWYTC [Linear CP2], the “KDM4A IC50 relative to CP2” value in test [3] (AlphaScreen) is given as “four fold higher”. For the compound DYVYNT[Lys(Me3)]SGWRWYTC [R6Kme3], the “Demethylation of the peptide by KDM4A (substrate)” value is on record as “efficiently demethylated” in test [1] and “substrates of KDM4A” in test [1] (listed as CP2(R6Kme3)).

Take `CC(C)[C@H]1C(=O)N[C@@H](Cc2ccc(O)cc2)C(=O)N[C@@H](CC(N)=O)C(=O)N[C@@H]([C@@H](C)O)C(=O)N[C@@H](C)C(=O)N[C@@H](CO)C(=O)N[C@H](C)C(=O)N[C@@H](Cc2c[nH]c3ccccc23)C(=O)N[C@@H](CCCNC(=N)N)C(=O)N[C@@H](Cc2c[nH]c3ccccc23)C(=O)N[C@@H](Cc2ccc(F)cc2)C(=O)N2CCC[C@H]2C(=O)N(C)[C@H](C(N)=O)CSCC(=O)N[C@H](Cc2ccc(O)cc2)C(=O)N1C` [CP2.3(R6A)] ({CH2CO}-[dY][NMeV]YNTAS[dA]WRW[Phe(4-F)]P[NMeC]-NH2; thioether N-14): the concentration for half-maximal inhibition (IC50) in test [7] is more than 10 µM. Turning to DY(meV)YNTRSDAWRWY(meT)(meC) [CP2.2], the “Inhibitor range with increases” value in test [5] lay within 10 to 20 µM. For DY(meV)YNTRSDAWRW(4FF)P(meC) [CP2.3], the “Inhibitor range with increases” value in test [5] was 10 to 20 µM.

The record behind these values is paper PMC5384220 (Nature Communications, 2017).
